This assay concerns the target T1, Recombinant human TPH1 (MBP tagged) (Homo sapiens, UniProt P17752).
T1 construct: cloning full length human TPH1 cDNA in to a bacterial pMAL-c5E expression vector; made in house; host or cells: E. coli BL21 (DE3)
T1 sequence (P17752 1-444): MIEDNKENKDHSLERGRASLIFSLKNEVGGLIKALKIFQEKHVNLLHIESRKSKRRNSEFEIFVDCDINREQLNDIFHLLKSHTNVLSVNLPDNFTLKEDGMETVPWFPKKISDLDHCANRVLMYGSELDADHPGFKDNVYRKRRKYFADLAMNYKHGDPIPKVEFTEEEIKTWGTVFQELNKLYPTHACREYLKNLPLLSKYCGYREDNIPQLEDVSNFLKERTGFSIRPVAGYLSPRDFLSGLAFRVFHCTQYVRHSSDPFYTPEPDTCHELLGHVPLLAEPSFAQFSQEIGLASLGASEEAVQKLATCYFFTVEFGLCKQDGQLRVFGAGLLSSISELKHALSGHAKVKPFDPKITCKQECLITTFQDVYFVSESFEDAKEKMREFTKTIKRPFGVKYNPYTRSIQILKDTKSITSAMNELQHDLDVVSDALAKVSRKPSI
The experiment in a line: TPH1 in vitro inhibition assay (kinetic fluorescence). The assay is classed as biochemical. The essentials:
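Final mix: 15 nM MBP-TPH1, 30 μM Trp, 36 μM 6-methyltetrahydropterin, 25 μM ferrous ammonium sulfate, 50 mM MES pH 7.1, 1% DMSO, room temperature.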

The mark [1] stands for this setting: read-out: TPH1 Range (TPH1 inhibition IC50).
Setting [2] is: TPH1 Range (TPH1 inhibition IC50).

Like-named read-outs stand apart in the source and are kept apart here.

In the case of `CS(=O)(=O)c1ccc([C@@H](Oc2cc(N3CCC4(CC3)CN[C@H](C(=O)O)C4)nc(N)n2)C(F)(F)F)c(-c2ccccc2)c1` [Example 54d, (S)-8-(2-amino-6-((R)-2,2,2-trifluoro-1-(5-(methylsulfonyl)-[1,1′-biphenyl]-2-yl)ethoxy)pyrimidin-4-yl)-2,8-diazaspiro[4.5]decane-3-carboxylic acid], the IC50 under setting [1] lay in the range of 0.05 to 0.3 µM.
On the same count and under the same terms, the figure for `CCCOc1ccc(-c2ccc([C@@H](Oc3cc(N4CCC5(CC4)CN[C@H](C(=O)O)C5)nc(N)n3)C(F)(F)F)c(-c3ccccc3)c2)cc1F` [Example 54e, (S)-8-(2-amino-6-((R)-2,2,2-trifluoro-1-(3-fluoro-4-propoxy-[1,1′:3′,1″-terphenyl]-4′-yl)ethoxy)pyrimidin-4-yl)-2,8-diazaspiro[4.5]decane-3-carboxylic acid] is 0.05 to 0.3 µM; for `Cc1ccc(-c2ccc([C@@H](Oc3cc(N4CCC5(CC4)CN[C@H](C(=O)O)C5)nc(N)n3)C(F)(F)F)c(-c3ccccc3)c2)cc1C` [Example 54f, (S)-8-(2-amino-6-((R)-1-(3,4-dimethyl-[1,1′:3′,1″-terphenyl]-4′-yl)-2,2,2-trifluoroethoxy)pyrimidin-4-yl)-2,8-diazaspiro[4.5]decane-3-carboxylic acid] it is under 0.05 µM.
On the same count and under the same terms, the figure for `Nc1nc(O[C@H](c2ccc(-c3ccccc3)cc2-c2ccccc2)C(F)(F)F)cc(N2CCC3(CC2)CN[C@H](C(=O)O)C3)n1` [Example 54g, (S)-8-(6-((R)-1-([1,1′:3′,1″-terphenyl]-4′-yl)-2,2,2-trifluoroethoxy)-2-aminopyrimidin-4-yl)-2,8-diazaspiro[4.5]decane-3-carboxylic acid] is 0.05 to 0.3 µM.
Take `Nc1nc(O[C@H](c2ccc(Cl)cc2-c2ccccc2)C(F)(F)F)cc(N2CCC3(CC2)CN[C@@H](C(=O)O)C3)n1` [Example 54h, (R)-8-(2-amino-6-((R)-1-(5-chloro-[1,1′-biphenyl]-2-yl)-2,2,2-trifluoroethoxy)pyrimidin-4-yl)-2,8-diazaspiro[4.5]decane-3-carboxylic acid]: under setting [2], the IC50 was 3 to 10 µM.
In the case of `Nc1nc(O[C@@H](c2ccc(Cl)cc2-c2ccccc2)C(F)(F)F)cc(N2CCC3(CC2)CN[C@@H](C(=O)O)C3)n1` [Example 54i, (R)-8-(2-amino-6-((S)-1-(5-chloro-[1,1′-biphenyl]-2-yl)-2,2,2-trifluoroethoxy)pyrimidin-4-yl)-2,8-diazaspiro[4.5]decane-3-carboxylic acid], the IC50 under setting [2] fell in the range of 3 to 10 µM.
Still for that read-out and setting: the same measure for `Nc1nc(O[C@@H](c2ccc(Cl)cc2-c2ccccc2)C(F)(F)F)cc(N2CCC3(CC2)CN[C@H](C(=O)O)C3)n1` [Example 54j, (S)-8-(2-amino-6-((S)-1-(5-chloro-[1,1′-biphenyl]-2-yl)-2,2,2-trifluoroethoxy)pyrimidin-4-yl)-2,8-diazaspiro[4.5]decane-3-carboxylic acid]: 0.05 to 0.3 µM.
`Cc1ccn(-c2cc(-c3ccc(C)c(C)c3)ccc2[C@H](Oc2cc(N3CCC4(CC3)CN[C@H](C(=O)O)C4)nc(N)n2)C(F)(F)F)n1` [Example 54k, (S)-8-(2-amino-6-((S)-1-(3′,4′-dimethyl-3-(3-methyl-1H-pyrazol-1-yl)-[1,1′-biphenyl]-4-yl)-2,2,2-trifluoroethoxy)pyrimidin-4-yl)-2,8-diazaspiro[4.5]decane-3-carboxylic acid]: the IC50 under setting [2] is 0.05 to 0.3 µM.
`Cc1ccn(-c2cc(-c3ccc(C)c(C)c3)ccc2[C@H](Oc2cc(N3CCC4(CC3)CN[C@@H](C(=O)O)C4)nc(N)n2)C(F)(F)F)n1` [Example 54l, (R)-8-(2-amino-6-((S)-1-(3′,4′-dimethyl-3-(3-methyl-1H-pyrazol-1-yl)-[1,1′-biphenyl]-4-yl)-2,2,2-trifluoroethoxy)pyrimidin-4-yl)-2,8-diazaspiro[4.5]decane-3-carboxylic acid]: under setting [2], the IC50 was in the range of 3 to 10 µM.
The same measure, in the same setting: the figure for `Cc1ccn(-c2cc(-c3ccc(C)c(C)c3)ccc2[C@@H](Oc2cc(N3CCC4(CC3)CN[C@@H](C(=O)O)C4)nc(N)n2)C(F)(F)F)n1` [Example 54m, (R)-8-(2-amino-6-((R)-1-(3′,4′-dimethyl-3-(3-methyl-1H-pyrazol-1-yl)-[1,1′-biphenyl]-4-yl)-2,2,2-trifluoroethoxy)pyrimidin-4-yl)-2,8-diazaspiro[4.5]decane-3-carboxylic acid] is 0.3 to 3 µM.
In the case of `Nc1nc(O[C@H](c2ccc(-c3ccccc3)cc2)C(F)(F)F)cc(N2CCC3(CC2)CN[C@H](C(=O)O)C3)n1` [Example 55a, (S)-8-(6-((R)-1-([1,1′-biphenyl]-4-yl)-2,2,2-trifluoroethoxy)-2-aminopyrimidin-4-yl)-2,8-diazaspiro[4.5]decane-3-carboxylic acid], under setting [1], the IC50 was 0.05 to 0.3 µM.
Still for that read-out and setting: the figure for `COc1cc(C#N)cc(-c2ccc([C@@H](Oc3cc(N4CCC5(CC4)CN[C@H](C(=O)O)C5)nc(N)n3)C(F)(F)F)cc2)c1` [Example 55aa, (S)-8-(2-amino-6-((R)-1-(3′-cyano-5′-methoxy-[1,1′-biphenyl]-4-yl)-2,2,2-trifluoroethoxy)pyrimidin-4-yl)-2,8-diazaspiro[4.5]decane-3-carboxylic acid] is 0.05 to 0.3 µM; for `Nc1nc(O[C@H](c2ccc(-c3ccc4[nH]c(=O)oc4c3)cc2)C(F)(F)F)cc(N2CCC3(CC2)CN[C@H](C(=O)O)C3)n1` [Example 55ab, (S)-8-(2-amino-6-((R)-2,2,2-trifluoro-1-(4-(2-oxo-2,3-dihydrobenzo[d]oxazol-6-yl)phenyl)ethoxy)pyrimidin-4-yl)-2,8-diazaspiro[4.5]decane-3-carboxylic acid] it is 0.05 to 0.3 µM.
As to `Cc1c[nH]c2ccc(-c3ccc([C@@H](Oc4cc(N5CCC6(CC5)CN[C@H](C(=O)O)C6)nc(N)n4)C(F)(F)F)cc3)cc12` [Example 55ac, (S)-8-(2-amino-6-((R)-2,2,2-trifluoro-1-(4-(3-methyl-1H-indol-5-yl)phenyl)ethoxy)pyrimidin-4-yl)-2,8-diazaspiro[4.5]decane-3-carboxylic acid], under setting [1], the IC50 is 0.05 to 0.3 µM.
For the compound `COC(=O)c1ccc(-c2ccc([C@@H](Oc3cc(N4CCC5(CC4)CN[C@H](C(=O)O)C5)nc(N)n3)C(F)(F)F)cc2)cc1OC(C)=O` [Example 55ad, (S)-8-(6-((R)-1-(3′-acetoxy-4′-(methoxycarbonyl)-[1,1′-biphenyl]-4-yl)-2,2,2-trifluoroethoxy)-2-aminopyrimidin-4-yl)-2,8-diazaspiro[4.5]decane-3-carboxylic acid], the IC50 under setting [1] is 0.05 to 0.3 µM.
The same measure, in the same setting: the figure for `Nc1nc(O[C@H](c2ccc(-c3ccc4ccc(=O)oc4c3)cc2)C(F)(F)F)cc(N2CCC3(CC2)CN[C@H](C(=O)O)C3)n1` [Example 55ae, (S)-8-(2-amino-6-((R)-2,2,2-trifluoro-1-(4-(2-oxo-2H-chromen-7-yl)phenyl)ethoxy)pyrimidin-4-yl)-2,8-diazaspiro[4.5]decane-3-carboxylic acid] is 0.3 to 3 µM; for `Cn1cc(-c2ccc([C@@H](Oc3cc(N4CCC5(CC4)CN[C@H](C(=O)O)C5)nc(N)n3)C(F)(F)F)cc2)ccc1=O` [Example 55af, (S)-8-(2-amino-6-((R)-2,2,2-trifluoro-1-(4-(1-methyl-6-oxo-1,6-dihydropyridin-3-yl)phenyl)ethoxy)pyrimidin-4-yl)-2,8-diazaspiro[4.5]decane-3-carboxylic acid] it is 0.3 to 3 µM.
As for `Nc1nc(O[C@H](c2ccc(-c3ccc(C(=O)O)c(O)c3)cc2)C(F)(F)F)cc(N2CCC3(CC2)CN[C@H](C(=O)O)C3)n1` [Example 55ag, (S)-8-(2-amino-6-((R)-1-(4′-carboxy-3′-hydroxy-[1,1′-biphenyl]-4-yl)-2,2,2-trifluoroethoxy)pyrimidin-4-yl)-2,8-diazaspiro[4.5]decane-3-carboxylic acid], the IC50 under setting [1] is 0.05 to 0.3 µM.
On the same count and under the same terms, the figure for `COc1ccc2cc(-c3ccc([C@@H](Oc4cc(N5CCC6(CC5)CN[C@H](C(=O)O)C6)nc(N)n4)C(F)(F)F)cc3)ccc2n1` [Example 55ah, (S)-8-(2-amino-6-((R)-2,2,2-trifluoro-1-(4-(2-methoxyquinolin-6-yl)phenyl)ethoxy)pyrimidin-4-yl)-2,8-diazaspiro[4.5]decane-3-carboxylic acid] is 0.05 to 0.3 µM.
For the compound `CSc1ccc2cc(-c3ccc([C@@H](Oc4cc(N5CCC6(CC5)CN[C@H](C(=O)O)C6)nc(N)n4)C(F)(F)F)cc3)ccc2n1` [Example 55ai, (S)-8-(2-amino-6-((R)-2,2,2-trifluoro-1-(4-(2-(methylthio)quinolin-6-yl)phenyl)ethoxy)pyrimidin-4-yl)-2,8-diazaspiro[4.5]decane-3-carboxylic acid], under setting [2], the IC50 is under 0.05 µM.
Consider `CN1C(=O)CCc2cc(-c3ccc([C@@H](Oc4cc(N5CCC6(CC5)CN[C@H](C(=O)O)C6)nc(N)n4)C(F)(F)F)cc3)ccc21` [Example 55aj, (S)-8-(2-amino-6-((R)-2,2,2-trifluoro-1-(4-(1-methyl-2-oxo-1,2,3,4-tetrahydroquinolin-6-yl)phenyl)ethoxy)pyrimidin-4-yl)-2,8-diazaspiro[4.5]decane-3-carboxylic acid], for which the IC50 under setting [1] lay within 0.05 to 0.3 µM.
Same read-out and setting: the figure for `COc1cc(F)cc(-c2ccc([C@@H](Oc3cc(N4CCC5(CC4)CN[C@H](C(=O)O)C5)nc(N)n3)C(F)(F)F)cc2)c1` [Example 55ao, (S)-8-(2-amino-6-((R)-2,2,2-trifluoro-1-(3′-fluoro-5′-methoxy-[1,1′-biphenyl]-4-yl)ethoxy)pyrimidin-4-yl)-2,8-diazaspiro[4.5]decane-3-carboxylic acid] is 0.05 to 0.3 µM.

One may read the IC50 as the concentration that inhibits the measured activity by half.

The values are drawn from patent US11759462B2, “Spirocyclic compounds as tryptophan hydroxylase inhibitors” (priority 2013, dated 2023).
